Data reported in patent US20240059695A1, “SUBSTITUTED IMIDAZO[1,5-b]PYRIDAZINE COMPOUNDS AS KINASE INHIBITORS AND USE THEREOF” (IMPACT THERAPEUTICS (SHANGHAI), INC, priority 2020, published 2024).

Tests used:
[1] = tested on: human large cell lung cancer NCI-H460 cell; experiment: MTT proliferation assay of Example 1, NCI-H460; assay type: cell-based; settings: NCI-H460, 96 h, 4 days
Procedure: (§1) The cells were digested by trypsinase and centrifuged at 800 rpm for 5 minutes, the supernatant was discarded, and the residual was resuspended with fresh medium (1640 medium+10% FRS) and counted. The cells were seeded into 96well cell culture plate with a density of 2000/4000 cells per well and incubated overnight in a 5% CO2 incubator at 37° C. The stock solutions of the test substances were serially diluted to 8 concentrations by DMSO at the ratios of 1:3 and 1:10, respectively. 5 μL diluent of each concentration was added to […] (25 times diluted) and mixed by shaking. The overnight cell plates were taken and the culture medium was removed, 195 μL of fresh medium was added to each well, and 5 μL of diluted medium containing the corresponding concentration of the test compound was added respectively (the final concentration of DMSO is 1%), and the culture plate was then placed in a 5% CO2 incubator at 37° C for 4 days. After removing the original solution, […] of fresh serum-free DMEM medium containing MTT (0.5 mg/mL) was added to each well, the culture was continued. After 4 hours, the original solution was removed, 100 μL, of DMSO was added to each well, the 96-well plates were shaken for 10 minutes in the dark and placed in a multi-function reader to read the absorbance at the wavelength of 552/690 nm. […]

[2] = tested on: human colon cancer LoVo cell; experiment: MTT proliferation assay, LoVo; assay type: cell-based; settings: Homo sapiens, LoVo, 96 h, MTT, 4 days; read-out: IC50 (nM), proliferation of LoVo cell
Procedure: The cells were seeded into 96-well cell culture plate with a density of 2000/4000 cells per well and incubated overnight in a 5% CO2 incubator at 37° C. […] 5 μL diluent of each concentration was added to 120 μL of medium (25 times diluted) and mixed by shaking. The overnight cell plates were taken and the culture medium was removed, 195 μL of fresh medium was added to each well, and 5 μL of diluted medium containing the corresponding concentration of the test compound was added respectively (the final concentration of DMSO is 1%), and the culture plate was then placed in a 5% CO2 incubator at 37° C. for 4 days. After removing the original solution, […] of fresh serum-free DMEM medium containing MTT (0.5 mg/mL) was added to each well, the culture was continued. […] Cell viability (%)=(ODcompound−ODbackground)/ODDMSO−ODbackground)×100. GraphPad Prism 6.0 was used to analyze the data. The inhibitory activity of compounds on cell proliferation was plotted based on cell viability and the logarithm of compound concentration. The IC5.0 value was fitted by a sigmoidal dose response curve equation Y=100/(1+10^(LogC-LogIC50)), wherein C was the concentration of compound.

[3] = tested on: HCT116 (human colorectal adenocarcinoma cell); experiment: MTT proliferation assay of Example 1, HCT116; assay type: cell-based; settings: HCT-116, 96 h, 4 days
Procedure: as §1

[4] = tested on: human ovarian cancer OVCAR-3 cell; experiment: Synergistic inhibition of Example 1 in combination with senaparib, MTT assay; assay type: cell-based; settings: for Combination Index (CI): OVCAR-3, 3 days
Procedure: The cells were digested by trypsinase and centrifuged at 800 rpm for 5 minutes, the supernatant was discarded, and the residual was resuspended with fresh medium (1640 medium+10% FBS) and counted. The cells were seeded into 96-well cell culture plate with an appropriate density and incubated overnight in a 5% CO2 incubator at 37° C. The stock solutions of the test substances were serially diluted to 4-5 concentrations by DMSO at the ratios of 1:3, respectively. 5 µL diluent of each concentration was added to 120 μL of medium (25 times diluted) and mixed by shaking. The overnight cell plates were taken and the culture medium was removed, […] of fresh medium was added to each well, and 5 μL of diluted compound or 5 μL of medium containing DMSO was added respectively (the final concentration of DMSO is 1%), and the culture plate was then placed in a 5% CO2 incubator at 37° C. for 3 days. After removing the original solution, 100 μL of fresh serum-free DMEM medium containing MTT (0.5 mg/mL) was added to each well, the culture was continued. After 4 hours, the original solution was removed, 100 μL of DMSO was added to each well, the 96-well plates were shaken for 10 minutes in the dark and placed in a multi-function reader to read the absorbance at the wavelength of 552/690 nm. Cell viability (%)=(ODcompound−ODbackground)/(ODDMSO−ODbackground)×100. The combination index (CI) was calculated with the software CalcuSyn.

ATR/ATRIP enzyme = molecular target: T1, ATR/ATRIP enzyme (Homo sapiens, UniProt Q13535); experiment: ATR enzyme activity experiment (HTRF); assay type: biochemical; settings: p53 substrate, 30 min room temperature, read-out: IC50 (nM), inhibitory effect on ATR kinase activity
T1 construct: purchased Eurofins 14-953
T1 sequence (Q13535 whole entry): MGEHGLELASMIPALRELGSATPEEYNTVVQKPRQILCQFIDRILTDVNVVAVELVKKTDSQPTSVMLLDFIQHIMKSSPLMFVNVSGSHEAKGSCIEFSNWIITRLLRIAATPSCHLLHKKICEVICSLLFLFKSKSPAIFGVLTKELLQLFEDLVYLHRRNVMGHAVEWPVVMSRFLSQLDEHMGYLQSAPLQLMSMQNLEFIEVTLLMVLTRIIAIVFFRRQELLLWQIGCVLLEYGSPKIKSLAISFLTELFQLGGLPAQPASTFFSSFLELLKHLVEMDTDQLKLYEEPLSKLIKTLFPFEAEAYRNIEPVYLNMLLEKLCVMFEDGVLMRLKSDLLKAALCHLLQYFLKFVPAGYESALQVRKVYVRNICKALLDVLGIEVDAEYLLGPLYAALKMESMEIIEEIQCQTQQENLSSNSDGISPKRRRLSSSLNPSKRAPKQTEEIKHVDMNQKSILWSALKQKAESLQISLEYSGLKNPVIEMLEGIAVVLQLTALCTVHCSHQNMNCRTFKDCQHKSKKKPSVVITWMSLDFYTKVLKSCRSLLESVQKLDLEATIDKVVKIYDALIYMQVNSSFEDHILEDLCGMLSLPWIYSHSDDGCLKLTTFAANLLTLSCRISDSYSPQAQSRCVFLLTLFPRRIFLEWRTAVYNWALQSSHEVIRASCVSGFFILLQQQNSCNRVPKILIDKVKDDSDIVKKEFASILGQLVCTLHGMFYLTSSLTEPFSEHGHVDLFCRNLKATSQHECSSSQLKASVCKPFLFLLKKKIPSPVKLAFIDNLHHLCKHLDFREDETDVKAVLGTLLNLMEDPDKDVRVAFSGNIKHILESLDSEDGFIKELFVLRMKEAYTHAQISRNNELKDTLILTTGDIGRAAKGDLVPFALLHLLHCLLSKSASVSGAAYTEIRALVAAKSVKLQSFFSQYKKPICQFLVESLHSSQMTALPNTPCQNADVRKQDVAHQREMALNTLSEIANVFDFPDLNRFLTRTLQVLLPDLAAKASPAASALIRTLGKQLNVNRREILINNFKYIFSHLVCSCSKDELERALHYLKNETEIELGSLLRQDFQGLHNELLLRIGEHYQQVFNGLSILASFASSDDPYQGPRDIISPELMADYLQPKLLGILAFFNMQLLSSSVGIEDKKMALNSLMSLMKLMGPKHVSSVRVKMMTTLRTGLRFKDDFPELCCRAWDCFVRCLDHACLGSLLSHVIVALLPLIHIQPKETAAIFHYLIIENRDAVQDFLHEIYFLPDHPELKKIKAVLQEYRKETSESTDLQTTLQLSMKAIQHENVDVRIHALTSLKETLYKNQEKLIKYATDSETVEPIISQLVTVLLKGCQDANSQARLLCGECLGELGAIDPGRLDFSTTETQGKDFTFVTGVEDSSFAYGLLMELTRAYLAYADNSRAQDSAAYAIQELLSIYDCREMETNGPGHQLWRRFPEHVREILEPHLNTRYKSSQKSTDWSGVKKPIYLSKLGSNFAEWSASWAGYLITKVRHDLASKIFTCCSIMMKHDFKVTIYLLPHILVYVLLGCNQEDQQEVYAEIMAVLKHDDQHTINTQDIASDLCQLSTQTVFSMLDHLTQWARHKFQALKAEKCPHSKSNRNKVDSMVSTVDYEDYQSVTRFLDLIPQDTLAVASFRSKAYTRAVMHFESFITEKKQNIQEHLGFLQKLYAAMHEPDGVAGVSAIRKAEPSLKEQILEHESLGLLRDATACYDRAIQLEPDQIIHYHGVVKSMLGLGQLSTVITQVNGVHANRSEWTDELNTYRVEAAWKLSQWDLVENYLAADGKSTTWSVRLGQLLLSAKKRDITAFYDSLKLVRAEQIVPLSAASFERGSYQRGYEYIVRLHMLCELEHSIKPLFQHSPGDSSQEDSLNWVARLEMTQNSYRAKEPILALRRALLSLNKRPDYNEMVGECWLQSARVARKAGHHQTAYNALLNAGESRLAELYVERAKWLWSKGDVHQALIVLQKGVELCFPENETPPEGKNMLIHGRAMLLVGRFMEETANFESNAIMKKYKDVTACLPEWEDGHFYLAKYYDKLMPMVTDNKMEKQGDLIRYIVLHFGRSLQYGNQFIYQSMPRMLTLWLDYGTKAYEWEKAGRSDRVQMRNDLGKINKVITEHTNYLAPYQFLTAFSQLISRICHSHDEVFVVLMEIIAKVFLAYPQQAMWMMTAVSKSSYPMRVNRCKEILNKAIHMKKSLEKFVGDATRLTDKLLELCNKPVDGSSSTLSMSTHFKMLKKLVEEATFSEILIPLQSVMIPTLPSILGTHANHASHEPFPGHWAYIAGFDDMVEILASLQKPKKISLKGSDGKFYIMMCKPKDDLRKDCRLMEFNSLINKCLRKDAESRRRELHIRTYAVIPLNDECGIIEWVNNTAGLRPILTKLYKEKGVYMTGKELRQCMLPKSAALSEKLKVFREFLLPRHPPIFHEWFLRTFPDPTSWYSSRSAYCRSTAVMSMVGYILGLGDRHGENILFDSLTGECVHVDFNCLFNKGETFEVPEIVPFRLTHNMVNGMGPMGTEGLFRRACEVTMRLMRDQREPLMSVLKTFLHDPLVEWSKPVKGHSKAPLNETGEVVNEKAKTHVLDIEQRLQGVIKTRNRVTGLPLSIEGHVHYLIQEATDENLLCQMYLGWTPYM
T1 sequence (Q8WXE1 whole entry partner): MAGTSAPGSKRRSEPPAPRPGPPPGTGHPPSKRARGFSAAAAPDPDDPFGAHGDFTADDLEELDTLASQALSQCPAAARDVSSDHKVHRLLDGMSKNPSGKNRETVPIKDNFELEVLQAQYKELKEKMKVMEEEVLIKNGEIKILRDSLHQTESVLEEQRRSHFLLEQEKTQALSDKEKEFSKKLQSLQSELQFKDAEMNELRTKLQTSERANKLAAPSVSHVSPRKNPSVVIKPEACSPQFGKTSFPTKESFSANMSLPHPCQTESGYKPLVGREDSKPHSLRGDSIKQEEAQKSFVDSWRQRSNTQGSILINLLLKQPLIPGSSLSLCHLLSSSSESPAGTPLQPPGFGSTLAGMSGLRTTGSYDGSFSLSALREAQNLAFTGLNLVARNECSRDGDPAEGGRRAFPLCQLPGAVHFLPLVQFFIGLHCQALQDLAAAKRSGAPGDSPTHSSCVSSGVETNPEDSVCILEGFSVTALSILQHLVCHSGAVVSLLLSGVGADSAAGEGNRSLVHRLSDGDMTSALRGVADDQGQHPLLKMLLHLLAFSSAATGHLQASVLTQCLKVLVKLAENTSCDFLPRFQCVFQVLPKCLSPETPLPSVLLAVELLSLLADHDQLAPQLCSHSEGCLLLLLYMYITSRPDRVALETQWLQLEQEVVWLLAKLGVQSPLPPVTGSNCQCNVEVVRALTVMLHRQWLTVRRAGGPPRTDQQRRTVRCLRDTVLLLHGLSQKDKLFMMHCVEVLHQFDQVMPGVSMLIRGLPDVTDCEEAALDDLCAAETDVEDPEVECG
Procedure: The mixture was centrifuged at 1000 rpm for 1 minute, and reacted at room temperature protected from light for 30 minutes. Then 5 μL of EDTA stop solution (250 mM) was added to stop the reaction.

[5] = tested on: human ovarian cancer OVCAR-3 cell; experiment: MTT proliferation assay of Example 1, OVCAR-3; assay type: cell-based; settings: OVCAR-3, 96 h, 4 days
Procedure: as §1

[6] = tested on: human breast cancer HCC1806 cell; experiment: MTT proliferation assay of Example 1, HCC1806; assay type: cell-based; settings: HCC1806, 96 h, 4 days
Procedure: as §1

IC50 [1]: 19 nM
IC50 [2]: 26.7 nM
IC50 [3]: 22.5 nM
IC50 (ATR/ATRIP enzyme): 1 nM
IC50 [5]: 182 nM
IC50 [6]: 38.8 nM
Structure (SMILES): Cc1nc(-c2ccn[nH]2)n2nc(N3CCOC[C@H]3C)cc(-c3ccnn3C)c12 [Example 1, (R)-3-methyl-4-(5-methyl-4-(1-methyl-1H-pyrazol-5-yl)-7-(1H-pyrazol-5-yl)imidazo[1,5-b]pyridazin-2-yl)morpholine]
Combination Index (CI) ([4]; 11 nM Example 1 + 37 nM senaparib): 1.157
Combination Index (CI) ([4]; 11 nM Example 1 + 111 nM senaparib): 0.215
Combination Index (CI) ([4]; 11 nM Example 1 + 333 nM senaparib): 0.069
Combination Index (CI) ([4]; 11 nM Example 1 + 1000 nM senaparib): 0.052
Combination Index (CI) ([4]; 11 nM Example 1 + 3000 nM senaparib): 0.044
Combination Index (CI) ([4]; 33 nM Example 1 + 37 nM senaparib): 0.275
Combination Index (CI) ([4]; 33 nM Example 1 + 111 nM senaparib): 0.213
Combination Index (CI) ([4]; 33 nM Example 1 + 333 nM senaparib): 0.18
Combination Index (CI) ([4]; 33 nM Example 1 + 1000 nM senaparib): 0.148
Combination Index (CI) ([4]; 33 nM Example 1 + 3000 nM senaparib): 0.12
Combination Index (CI) ([4]; 100 nM Example 1 + 37 nM senaparib): 0.603
Combination Index (CI) ([4]; 100 nM Example 1 + 111 nM senaparib): 0.544
Combination Index (CI) ([4]; 100 nM Example 1 + 333 nM senaparib): 0.488
Combination Index (CI) ([4]; 100 nM Example 1 + 1000 nM senaparib): 0.424
Combination Index (CI) ([4]; 100 nM Example 1 + 3000 nM senaparib): 0.364
Combination Index (CI) ([4]; 300 nM Example 1 + 37 nM senaparib): 1.588
Combination Index (CI) ([4]; 300 nM Example 1 + 111 nM senaparib): 1.471
Combination Index (CI) ([4]; 300 nM Example 1 + 333 nM senaparib): 1.377
Combination Index (CI) ([4]; 300 nM Example 1 + 1000 nM senaparib): 1.276
Combination Index (CI) ([4]; 300 nM Example 1 + 3000 nM senaparib): 1.195
synergistic effect on inhibiting the proliferation of OVCAR-3 cells (in words) ([4]; combination of Example 1 and senaparib): good synergistic effect
